For one series, the target named is αvβ6-integrin (Homo sapiens, UniProt P06756+P18564). The note with it: cited from earlier work.
The target in the next series is αIIbβ3 (Homo sapiens, UniProt P05106+P08514). As to conditions: cited from earlier work.
The target in another series is α5β1 (Homo sapiens, UniProt P05556+P08648). The note with it: cited from earlier work.
Another series addresses αvβ3 (Homo sapiens, UniProt P05106+P06756). As to conditions: cited from earlier work.
Another series concerns the target αvβ5 (Homo sapiens, UniProt P06756+P18084). As to conditions: cited from earlier work.
For series [1] the following is noted: up to 3 h; cited from earlier work.
Series [2] deals with H2009 tumor-bearing SCID mice. Kind of series: biokinetics from 90-min dynamic PET scans. As to conditions: mouse, in vivo. The source says: All animal studies have been performed in accordance with general animal welfare regulations in Germany and the institutional guidelines for the care and use of animals. H2009 human lung adenocarcinoma cells (CRL-5911; American Type Culture Collection) were cultivated as recommended by the distributor. To generate tumor xenografts, 6- to 8-week-old female CB17 SCID mice (Charles River) were inoculated with 10^7 H2009 cells in Matrigel (CultrexBME, type 3 PathClear; Trevigen, GENTAUR GmbH). Mice were used for biodistribution or PET studies when tumors had grown to a diameter of 10-12 mm (4-6 weeks after inoculation).
Mice were anaesthetized with isoflurane for intravenous administration of the radiolabeled compounds. The administered activity per mouse ranged between 10 and 15 MBq (100-200 pmol, depending on variations in timing of production and administration). PET imaging was performed on a Siemens Inveon small-animal PET system, either dynamic under isoflurane anaesthesia for 90 min, or as single frames 75 min p.i. with an acquisition time of 20 min. Data were reconstructed using Siemens Inveon Research Workspace software, employing a three-dimensional ordered subset expectation maximum (OSEM3D) algorithm without scatter and attenuation correction. For kinetic analyses, regions of interest (ROIs) were defined manually.

Bounds are passed on as bounds.

Chain of αIIbβ3 (P08514 32-1039): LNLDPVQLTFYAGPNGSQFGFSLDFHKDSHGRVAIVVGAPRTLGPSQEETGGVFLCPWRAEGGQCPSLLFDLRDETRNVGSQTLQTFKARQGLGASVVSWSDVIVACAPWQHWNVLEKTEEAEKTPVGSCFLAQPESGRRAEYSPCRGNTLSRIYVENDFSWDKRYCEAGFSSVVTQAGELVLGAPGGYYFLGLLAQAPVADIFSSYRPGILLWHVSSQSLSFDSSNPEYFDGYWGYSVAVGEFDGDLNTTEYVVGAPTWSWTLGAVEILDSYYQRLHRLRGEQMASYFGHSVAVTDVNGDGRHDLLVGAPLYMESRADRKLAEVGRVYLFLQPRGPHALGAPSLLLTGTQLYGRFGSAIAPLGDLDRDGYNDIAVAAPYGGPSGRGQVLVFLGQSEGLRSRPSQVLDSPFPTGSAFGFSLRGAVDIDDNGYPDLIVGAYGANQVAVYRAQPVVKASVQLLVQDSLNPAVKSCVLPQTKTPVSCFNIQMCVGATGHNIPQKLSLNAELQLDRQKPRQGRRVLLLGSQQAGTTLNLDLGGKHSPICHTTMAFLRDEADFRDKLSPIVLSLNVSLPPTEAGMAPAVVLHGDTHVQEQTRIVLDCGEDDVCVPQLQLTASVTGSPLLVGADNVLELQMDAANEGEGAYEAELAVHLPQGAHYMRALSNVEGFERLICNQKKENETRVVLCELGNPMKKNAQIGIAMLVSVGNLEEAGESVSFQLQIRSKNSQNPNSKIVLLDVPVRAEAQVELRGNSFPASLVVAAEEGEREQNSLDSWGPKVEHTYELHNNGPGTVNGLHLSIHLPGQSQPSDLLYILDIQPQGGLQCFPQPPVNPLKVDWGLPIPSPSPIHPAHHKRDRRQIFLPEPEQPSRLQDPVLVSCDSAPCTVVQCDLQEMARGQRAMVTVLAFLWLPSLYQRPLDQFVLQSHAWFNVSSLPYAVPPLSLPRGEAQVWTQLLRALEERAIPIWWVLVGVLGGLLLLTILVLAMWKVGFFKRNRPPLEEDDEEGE
Chain of αIIbβ3 (P05106 27-788): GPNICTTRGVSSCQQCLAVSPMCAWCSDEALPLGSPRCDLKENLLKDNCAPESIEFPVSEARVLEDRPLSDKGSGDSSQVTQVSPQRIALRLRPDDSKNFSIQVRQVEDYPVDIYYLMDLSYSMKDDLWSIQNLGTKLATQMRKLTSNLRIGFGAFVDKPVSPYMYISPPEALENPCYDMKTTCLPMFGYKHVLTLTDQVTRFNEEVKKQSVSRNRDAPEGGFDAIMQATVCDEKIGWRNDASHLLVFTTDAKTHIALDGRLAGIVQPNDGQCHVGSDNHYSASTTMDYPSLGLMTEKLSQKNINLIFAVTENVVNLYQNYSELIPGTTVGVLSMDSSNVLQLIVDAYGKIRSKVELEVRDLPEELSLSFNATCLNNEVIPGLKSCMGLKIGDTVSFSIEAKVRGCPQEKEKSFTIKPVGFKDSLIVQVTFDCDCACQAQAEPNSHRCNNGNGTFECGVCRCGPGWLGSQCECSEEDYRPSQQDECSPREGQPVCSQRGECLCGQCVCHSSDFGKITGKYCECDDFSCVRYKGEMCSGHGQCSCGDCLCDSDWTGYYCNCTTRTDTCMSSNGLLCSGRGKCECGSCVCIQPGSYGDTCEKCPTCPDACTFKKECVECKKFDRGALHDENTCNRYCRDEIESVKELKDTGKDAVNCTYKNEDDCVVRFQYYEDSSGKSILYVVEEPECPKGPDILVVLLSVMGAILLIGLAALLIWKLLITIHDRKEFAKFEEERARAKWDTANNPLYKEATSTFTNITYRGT
Chain of αvβ5 (P06756 31-1048): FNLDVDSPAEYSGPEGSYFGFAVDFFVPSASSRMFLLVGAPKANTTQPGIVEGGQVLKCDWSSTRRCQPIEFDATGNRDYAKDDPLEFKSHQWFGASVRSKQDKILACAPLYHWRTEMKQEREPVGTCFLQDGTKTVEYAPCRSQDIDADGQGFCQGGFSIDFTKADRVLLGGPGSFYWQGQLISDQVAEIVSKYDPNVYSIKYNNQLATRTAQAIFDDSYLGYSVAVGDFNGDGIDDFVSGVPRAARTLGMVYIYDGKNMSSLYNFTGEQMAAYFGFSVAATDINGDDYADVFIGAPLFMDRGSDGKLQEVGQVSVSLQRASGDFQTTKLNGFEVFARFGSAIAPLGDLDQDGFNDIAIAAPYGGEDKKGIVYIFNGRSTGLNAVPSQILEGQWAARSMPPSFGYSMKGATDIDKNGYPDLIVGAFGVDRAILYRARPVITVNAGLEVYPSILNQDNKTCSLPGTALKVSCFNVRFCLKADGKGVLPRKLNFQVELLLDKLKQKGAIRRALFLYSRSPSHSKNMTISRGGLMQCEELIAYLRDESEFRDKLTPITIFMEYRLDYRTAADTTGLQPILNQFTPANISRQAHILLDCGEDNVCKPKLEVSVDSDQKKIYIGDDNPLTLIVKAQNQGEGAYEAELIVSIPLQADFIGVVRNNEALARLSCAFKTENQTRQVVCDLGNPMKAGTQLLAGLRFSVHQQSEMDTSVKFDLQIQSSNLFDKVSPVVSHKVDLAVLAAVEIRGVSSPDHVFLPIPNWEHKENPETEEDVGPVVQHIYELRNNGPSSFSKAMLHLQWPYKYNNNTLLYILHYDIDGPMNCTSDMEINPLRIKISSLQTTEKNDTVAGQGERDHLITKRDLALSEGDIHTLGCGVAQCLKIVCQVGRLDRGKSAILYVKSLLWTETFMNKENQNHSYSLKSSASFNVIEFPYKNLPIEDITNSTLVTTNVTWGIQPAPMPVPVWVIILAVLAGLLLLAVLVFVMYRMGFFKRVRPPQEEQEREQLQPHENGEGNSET
Chain of αvβ5 (P18084 24-799): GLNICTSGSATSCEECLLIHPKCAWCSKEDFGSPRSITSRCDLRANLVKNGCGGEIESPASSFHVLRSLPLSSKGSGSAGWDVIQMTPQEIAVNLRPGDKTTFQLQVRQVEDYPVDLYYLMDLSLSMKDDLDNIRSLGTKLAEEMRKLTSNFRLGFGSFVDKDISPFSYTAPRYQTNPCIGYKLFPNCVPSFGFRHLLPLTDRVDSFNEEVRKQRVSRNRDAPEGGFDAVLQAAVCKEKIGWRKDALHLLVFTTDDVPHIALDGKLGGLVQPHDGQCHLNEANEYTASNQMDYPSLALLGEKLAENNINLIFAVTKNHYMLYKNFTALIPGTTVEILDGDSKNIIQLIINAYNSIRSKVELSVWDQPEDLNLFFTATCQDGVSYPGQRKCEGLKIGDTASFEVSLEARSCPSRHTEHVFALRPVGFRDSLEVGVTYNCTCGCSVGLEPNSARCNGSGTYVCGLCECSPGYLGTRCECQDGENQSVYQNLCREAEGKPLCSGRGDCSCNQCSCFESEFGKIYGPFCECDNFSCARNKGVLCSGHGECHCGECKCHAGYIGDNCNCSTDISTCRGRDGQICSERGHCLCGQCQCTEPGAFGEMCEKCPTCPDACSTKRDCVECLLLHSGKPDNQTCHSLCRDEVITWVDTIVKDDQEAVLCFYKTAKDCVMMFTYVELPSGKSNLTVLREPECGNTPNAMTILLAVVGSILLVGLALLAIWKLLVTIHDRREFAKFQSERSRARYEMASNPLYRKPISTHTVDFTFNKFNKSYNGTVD

Consider cyclo(FRGDLAFp(NMe)K) [Phe2], for which the “affinity to αvβ6-integrin” value on αvβ6-integrin is given as 0.26 nM. The “affinity αIIbβ3 (selectivity against other integrins)” value at αIIbβ3 was greater than 1 µM. The “affinity α5β1 (selectivity against other integrins)” value at α5β1 is 73 nM. Further, the “affinity αvβ3 (selectivity against other integrins)” value on αvβ3 is listed as 632 nM. Also, the “affinity αvβ5 (selectivity against other integrins)” value at αvβ5 is greater than 1 µM. Besides, the “stability in human plasma” value in series [1] is given as “full stability”.
Take `CC(C)C[C@@H]1NC(=O)[C@H](CC(=O)O)NC(=O)CNC(=O)[C@H](CCCNC(=N)N)NC(=O)[C@H](Cc2ccc(O)cc2)NC(=O)[C@H](CCCCNC(=O)CCc2cn(CCCNC(=O)CCP(=O)(O)CN3CCN(CP(=O)(O)CCC(=O)NCCCn4cc(CCC(=O)NCCCC[C@H]5C(=O)N[C@@H](Cc6ccc(O)cc6)C(=O)N[C@@H](CCCNC(=N)N)C(=O)NCC(=O)N[C@@H](CC(=O)O)C(=O)N[C@@H](CC(C)C)C(=O)N[C@@H](C)C(=O)N[C@@H](Cc6ccccc6)C(=O)N6CCC[C@@H]6C(=O)N5C)nn4)CCN(CP(=O)(O)CCC(=O)NCCCn4cc(CCC(=O)NCCCC[C@H]5C(=O)N[C@@H](Cc6ccc(O)cc6)C(=O)N[C@@H](CCCNC(=N)N)C(=O)NCC(=O)N[C@@H](CC(=O)O)C(=O)N[C@@H](CC(C)C)C(=O)N[C@@H](C)C(=O)N[C@@H](Cc6ccccc6)C(=O)N6CCC[C@@H]6C(=O)N5C)nn4)CC3)nn2)N(C)C(=O)[C@H]2CCCN2C(=O)[C@H](Cc2ccccc2)NC(=O)[C@H](C)NC1=O` [Ga-68-C-9, metal not drawn]: in series [2], the “clearance from the blood pool” value is reported as “much faster than that of Ga-68-TRAP(Phe2)3”.

The record behind these values is patent publication US20230173113A1, “CYCLIC PEPTIDES AND THEIR CONJUGATES FOR ADDRESSING ALPHA-V-BETA-6 INTEGRIN IN VIVO” (Technische Universität München, priority 2020, published 2023).
